This is an account of results in patent publication US20240343727A1, “PYRIDAZINONE OR PYRIDINONE COMPOUNDS, PREPARATION METHODS AND USES THEREOF” (InventisBio Co., Ltd., priority 2021, published 2024).

In this experiment the target is T1, PARP7 (Homo sapiens, UniProt Q7Z3E1).
T1 sequence (Q7Z3E1 1-657): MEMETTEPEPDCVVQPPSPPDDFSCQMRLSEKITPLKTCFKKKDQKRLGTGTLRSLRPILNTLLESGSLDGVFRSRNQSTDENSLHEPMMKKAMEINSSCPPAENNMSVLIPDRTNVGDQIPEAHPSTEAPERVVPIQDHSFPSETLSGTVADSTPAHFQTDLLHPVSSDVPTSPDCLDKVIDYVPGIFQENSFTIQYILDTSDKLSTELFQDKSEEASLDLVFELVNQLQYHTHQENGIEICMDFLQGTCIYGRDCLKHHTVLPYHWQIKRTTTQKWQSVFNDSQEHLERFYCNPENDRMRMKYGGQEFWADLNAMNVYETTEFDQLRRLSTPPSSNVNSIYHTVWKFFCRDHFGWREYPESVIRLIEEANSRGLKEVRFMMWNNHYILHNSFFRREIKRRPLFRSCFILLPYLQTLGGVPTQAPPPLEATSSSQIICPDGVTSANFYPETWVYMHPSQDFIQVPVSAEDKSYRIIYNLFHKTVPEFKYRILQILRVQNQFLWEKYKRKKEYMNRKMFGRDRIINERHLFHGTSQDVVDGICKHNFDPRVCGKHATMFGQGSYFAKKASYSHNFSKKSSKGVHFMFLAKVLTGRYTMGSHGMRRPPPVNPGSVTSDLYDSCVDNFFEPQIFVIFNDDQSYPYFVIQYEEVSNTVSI
Description: PARP7 TR-FRET assay (binding, displacement of biotinylated Probe A). The following applies: 6 nM PARP7, 2 nM Probe A, 25° C., 30 min. The method, boiled down:
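Compound displacement of biotinylated Probe A (2 nM) from PARP7 (6 nM) measured by TR-FRET in HEPES pH 8.0 buffer, 30 min at 25° C. Detection used ULight-anti 6xHis (4 nM) plus Eu-streptavidin (0.25 nM) for 30 min, reading the 665/615 nm ratio. % inhibition was taken against DMSO and no-enzyme wells, and IC50 from a Hill fit.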
On the technique in general: In TR-FRET formats the signal depends on donor and acceptor labels being close together.
One may read the IC50 as the concentration needed to halve the response being measured. In the case of `C[C@@H]1CN(C(=O)CC2CN(c3cc(C(F)(F)F)c(=O)[nH]n3)c3cc(Cl)ccc3O2)CCN1c1ncc(C#N)cn1` (single isomer, unassigned) [Compound 330], the IC50 is 100 to 1000 nM.

On to `O=C(CC1CN(c2cc(C(F)(F)F)c(=O)[nH]n2)c2ccccc2O1)N1CCn2c(nnc2C(F)(F)F)C1` (single isomer, unassigned) [Compound 290], for which the IC50 is more than 1000 nM.

`Cc1cccc2c(N3CCOC(CC(=O)N4CCN(c5ncc(C(F)(F)F)cn5)CC4)C3)n[nH]c(=O)c12` (single isomer, unassigned) [Compound 106] yielded an IC50 of 100 to 1000 nM.

For the molecule `C[C@@H]1CN(c2cc(C(F)(F)F)c(=O)[nH]n2)C[C@H](CC(=O)N2CCN(c3ncc(C(F)(F)F)cn3)CC2)O1` (stereo in doubt) [Compound 110], the IC50 lay in the range of 100 to 1000 nM.

Molecule `O=C(CC1CN(c2n[nH]c(=O)c3ccc(N4CCCC4)cc23)CCO1)N1CCN(c2ncc(C(F)(F)F)cn2)CC1` (single isomer, unassigned) [Compound 258] came in with an IC50 of less than 100 nM.

Molecule `O=C(c1cncc(Oc2n[nH]c(=O)c(C(F)(F)F)c2N2CC3(CCCO3)C2)c1)N1CCN(c2ncc(C(F)(F)F)cn2)CC1` [Compound 233] showed an IC50 of less than 100 nM.

`O=C(CC1CN(c2n[nH]c(=O)c3ccccc23)CCO1)N1CCN(c2ncc(C(F)(F)F)cn2)CC1` (single isomer, unassigned) [Compound 107]: the IC50 is 100 to 1000 nM.

`O=C(CC1CN(c2cc(C(F)(F)F)c(=O)[nH]n2)c2cc(F)ccc2O1)N1CCN(c2ncc(C(F)(F)F)cn2)CC1` (single isomer, unassigned) [Compound 131] yielded an IC50 of 100 to 1000 nM.

With `O=C(COC1CCOc2c1n[nH]c(=O)c2C(F)(F)F)N1CCN(c2ncc(C(F)(F)F)cn2)CC1` (single isomer, unassigned) [Compound 11], the IC50 is more than 1000 nM.

`N#Cc1cnc(N2CCN(C(=O)CC3CN(c4cc(C(F)(F)F)c(=O)[nH]n4)c4ccccc4O3)CC2)nc1` (single isomer, unassigned) [Compound 251] registered an IC50 of 100 to 1000 nM.

Molecule `O=C(c1cncc(Oc2n[nH]c(=O)c(C(F)(F)F)c2N2CC3(CCCO3)C2)c1)N1CCN(c2ncc(Cl)cn2)CC1` [Compound 234] gave a half-inhibitory concentration (IC50) of less than 100 nM.

In the case of `O=C(CC1CN(c2cc(C(F)(F)F)c(=O)[nH]n2)c2cc(Cl)ccc2O1)N1CCN(c2ncc(C(F)(F)F)cn2)CC1` (single isomer, unassigned) [Compound 133], the IC50 is less than 100 nM.

Molecule `O=C(CC[C@@H]1CCCN1c1n[nH]c(=O)c2c(F)cccc12)N1CCN(c2ncc(C(F)(F)F)cn2)CC1` [Compound 97] displayed an IC50 of less than 100 nM.

The molecule `COCCNC(=O)c1ccc2c(c1)N(c1cc(C(F)(F)F)c(=O)[nH]n1)CC(CC(=O)N1CCN(c3ncc(C(F)(F)F)cn3)CC1)O2` (single isomer, unassigned) [Compound 310] had an IC50 of less than 100 nM.

In turn, `Cc1c(Oc2ccc(F)c(C(=O)N3CCN(c4ncc(C(F)(F)F)cn4)CC3)c2)n[nH]c(=O)c1C(F)(F)F` [Compound 25] had an IC50 of less than 100 nM.

Regarding `CN1C[C@H](OCC(=O)N2CCN(c3ncc(C(F)(F)F)cn3)CC2)c2n[nH]c(=O)c3cc(F)cc1c23` (single isomer, unassigned) [Compound 13], the IC50 lay within 100 to 1000 nM.

`N#Cc1ccc(N2CCN(C(=O)[C@@H]3COCCN3c3cc(C(F)(F)F)c(=O)[nH]n3)CC2)nc1` [Compound 37] yielded a 50% inhibitory concentration (IC50) of less than 100 nM.

In turn, `C#Cc1cnc(N2CCN(C(=O)c3cncc(Oc4n[nH]c(=O)c(C(F)(F)F)c4N4CC5(C4)CC(F)(F)C5)c3)CC2)nc1` [Compound 299] yielded an IC50 of less than 100 nM.

The molecule `O=C(c1cccc(Oc2n[nH]c(=O)cc2C(F)(F)F)c1)N1CCN(c2ncc(C(F)(F)F)cn2)CC1` [Compound 18] showed an IC50 of more than 1000 nM.

With `Cc1c(N2CCOC(CC(=O)N3CCN(c4ncc(C(F)(F)F)cn4)CC3)C2)n[nH]c(=O)c1C(F)(F)F` (single isomer, unassigned) [Compound 38], the half-inhibitory concentration (IC50) is less than 100 nM.

`O=C(CC1CN(c2cc(C(F)(F)F)c(=O)[nH]n2)c2cc(C(F)F)ccc2O1)N1CCN(c2ncc(C(F)(F)F)cn2)CC1` (single isomer, unassigned) [Compound 228] showed an IC50 of less than 100 nM.

The molecule `CC(=O)N1CCN(C(=O)c2cccc(Oc3n[nH]c(=O)c(C(F)(F)F)c3N3CC4(CCC4)C3)c2)CC1` [Compound 160] registered an IC50 of less than 100 nM.

Take `O=C(CC1CN(c2n[nH]c(=O)c3ncccc23)CCO1)N1CCN(c2ncc(C(F)(F)F)cn2)CC1` (single isomer, unassigned) [Compound 125]: the IC50 is less than 100 nM.

In the case of `N#Cc1ccc(N2CCN(C(=O)CC3CN(c4cc(C(F)(F)F)c(=O)[nH]n4)c4cc(Cl)ccc4O3)CC2)nc1` (single isomer, unassigned) [Compound 225], the IC50 fell in the range of 100 to 1000 nM.

For the molecule `CNC(=O)c1ccc2c(c1)N(c1cc(C(F)(F)F)c(=O)[nH]n1)CC(CC(=O)N1CCN(c3ncc(C(F)(F)F)cn3)CC1)O2` (single isomer, unassigned) [Compound 323], the IC50 is less than 100 nM.

`CNCc1ccc2c(c1)N(c1cc(C(F)(F)F)c(=O)[nH]n1)CC(CC(=O)N1CCN(c3ncc(C(F)(F)F)cn3)CC1)O2` (single isomer, unassigned) [Compound 298] yielded an IC50 of 100 to 1000 nM.

`C[C@@H]1CN(C(=O)c2cncc(Oc3n[nH]c(=O)c(C(F)(F)F)c3N3CC4(C3)CC(F)(F)C4)c2)CCN1c1cnc(C(F)(F)F)cn1` [Compound 155] returned an IC50 of less than 100 nM.

On to `Cn1cc(-c2ccc3c(c2)N(c2cc(C(F)(F)F)c(=O)[nH]n2)CC(CC(=O)N2CCN(c4ncc(C(F)(F)F)cn4)CC2)O3)cn1` (single isomer, unassigned) [Compound 193], for which the IC50 is less than 100 nM.

The molecule `COCc1ccc2c(c1)N(c1cc(C(F)(F)F)c(=O)[nH]n1)CC(CC(=O)N1CCN(c3ncc(C(F)(F)F)cn3)CC1)O2` (single isomer, unassigned) [Compound 267] displayed an IC50 of less than 100 nM.

`O=C(CC1CN(c2n[nH]c(=O)c3cc(OCC(F)F)ccc23)CCO1)N1CCN(c2ncc(C(F)(F)F)cn2)CC1` (single isomer, unassigned) [Compound 209] yielded an IC50 of more than 1000 nM.

On to `Cc1c(C(F)(F)F)c(Oc2cccc(C(=O)N3CCN(c4ncc(C(F)(F)F)cn4)CC3)c2)n[nH]c1=O` [Compound 17], for which the IC50 was more than 1000 nM.

Molecule `O=C(COC1CCOc2c1n[nH]c(=O)c2C(F)F)N1CCN(c2ncc(C(F)(F)F)cn2)CC1` (single isomer, unassigned) [Compound 55] returned a half-maximal inhibitory concentration (IC50) of less than 100 nM.

On to `C[C@H]1CN(c2cc(C(F)(F)F)c(=O)[nH]n2)C[C@@H](CC(=O)N2CCN(c3ncc(C(F)(F)F)cn3)CC2)O1` (stereo in doubt) [Compound 79], for which the IC50 is less than 100 nM.

As to `C#Cc1ccc2c(=O)[nH]nc(N3CCOC(CC(=O)N4CCN(c5ncc(C(F)(F)F)cn5)CC4)C3)c2c1` (single isomer, unassigned) [Compound 194], the IC50 is less than 100 nM.

In turn, `O=C(CC1CN(c2cc(C(F)(F)F)c(=O)[nH]n2)c2ccccc2O1)N1CCN(c2nnc(C(F)(F)F)s2)CC1` (single isomer, unassigned) [Compound 288] displayed a concentration for half-maximal inhibition (IC50) of more than 1000 nM.

For `O=C(CC1CN(c2cc(C(F)(F)F)c(=O)[nH]n2)CCC1(F)F)N1CCN(c2ncc(C(F)(F)F)cn2)CC1` (single isomer, unassigned) [Compound 80], the IC50 is less than 100 nM.

For `N#CC1(c2ccnc(N3CCN(C(=O)CC4CN(c5cc(C(F)(F)F)c(=O)[nH]n5)c5cc(F)ccc5O4)CC3)n2)CC1` (single isomer, unassigned) [Compound 344], the IC50 is more than 1000 nM.

Molecule `O=C(c1cccc(Oc2n[nH]c(=O)c(C(F)(F)F)c2N2CC3(CCO3)C2)c1)N1CCN(c2ncc(C(F)(F)F)cn2)C2(CC2)C1` [Compound 253] displayed a half-maximal inhibitory concentration (IC50) of less than 100 nM.

`Cc1c(Sc2cccc(C(=O)N3CCN(c4ncc(C(F)(F)F)cn4)CC3)c2)n[nH]c(=O)c1C(F)(F)F` [Compound 62] showed a half-inhibitory concentration (IC50) of less than 100 nM.

As for `O=C(c1cccc(Oc2n[nH]c(=O)c(C(F)(F)F)c2N2CC3(CCCO3)C2)c1)N1CCN(c2ncc(C(F)(F)F)cn2)CC1` [Compound 162], the IC50 was less than 100 nM.

For the molecule `O=C(CC1CN(c2cc(C(F)(F)F)c(=O)[nH]n2)c2ccccc2O1)N1CCN(c2ncc(Cl)cn2)CC1` (single isomer, unassigned) [Compound 295], the IC50 was 100 to 1000 nM.

In turn, `Cc1c(Oc2cncc(C(=O)N3CCN(c4ncc(C(F)(F)F)cn4)CC3)c2)n[nH]c(=O)c1C(F)(F)F` [Compound 20] registered an IC50 of less than 100 nM.

For `C[C@@H]1CN(C(=O)c2cccc(Oc3n[nH]c(=O)c(C(F)(F)F)c3N3CC(C#N)C3)c2)CCN1c1ncc(C(F)(F)F)cn1` [Compound 350], the IC50 was less than 100 nM.

With `C[C@H]1CN(C(=O)c2cccc(Oc3n[nH]c(=O)c(C(F)(F)F)c3N3CC4(CCO4)C3)c2)CCN1c1ncc(C(F)(F)F)cn1` [Compound 254], the IC50 is less than 100 nM.
